Experimental data reported in US20120015977A1, “QUINOLINONE DERIVATIVES USEFUL FOR THE TREATMENT OF CNS DISORDERS” (NEUROSEARCH A/S, priority 2009, published 2012).

tested on: not given; assay: not given; settings: not given

Compared with `NC(=O)Cn1c(=O)ccc2cc(Br)ccc21` [Compound 1, 2-(6-Bromo-2-oxo-1-quinolyl)acetamide], `NC(=O)Cn1c(=O)ccc2cc(Cl)ccc21` [Compound 4, 2-(6-chloro-2-oxo-1-quinolyl)acetamide] is lower in melting point: 256.6 to 257.5 °C for the first, 159.4 to 160.9 °C for the second.

Compared with `CCC(C(N)=O)n1c(=O)ccc2cc(Br)ccc21` (stereo not drawn) [Compound 2, 2-(6-bromo-2-oxo-1-quinolyl)butanamide], `CCC(C(N)=O)n1c(=O)ccc2cc(Cl)ccc21` (stereo not drawn) [Compound 7, 2-(6-chloro-2-oxo-1-quinolyl)butanamide] is lower in melting point: 138.5 to 140 °C for the first, 127.5 to 128.8 °C for the second.

First: NC(=O)Cn1c(=O)ccc2cccc(Br)c21 [Compound 3, 2-(8-bromo-2-oxo-1-quinolyl)acetamide]
Second: NC(=O)Cn1c(=O)ccc2cccc(Cl)c21 [Compound 5, 2-(8-chloro-2-oxo-1-quinolyl)acetamide]
The melting point of the first is lower: 158.5 to 160 °C for the first, 166.5 to 167.6 °C for the second.

First: CCC(C(N)=O)n1c(=O)ccc2cccc(Cl)c21 (stereo not drawn) [Compound 6, 2-(8-chloro-2-oxo-1-quinolyl)butanamide]
Second: CCC(C(N)=O)n1c(=O)ccc2cccc(Br)c21 (stereo not drawn) [Compound 8, 2-(8-bromo-2-oxo-1-quinolyl)butanamide]
The melting point of the first is higher: 127 to 128 °C for the first, 124.2 to 125.5 °C for the second.

tested on: Psychomotor seizures induced via corneal stimulation (6 Hz); assay: 6 Hz electroshock seizure model (anticonvulsant properties); assay type: in vivo; settings: Mus musculus, po, 32 mA, 3 s corneal stimulation, p.o., pretreatment time 60 mins, vehicle 5% cremaphor, female NMRI mice, read-out: ED50 (dose that would give a 50% protection from seizures)
Excerpt: The animal models being used for the discovery of novel antiepileptic drugs are numerous. Among these, a low frequency (6 Hz) electroshock seizure model has recently come into the limelight as a potential model of pharmacoresistant epilepsy (see Epilepsy: a comprehensive textbook, pag. 1477, by Jerome Engel, Timothy A. Pedley, Jean Aicardi, Marc A Dichter, Solomon Moshé—2007—Medical), and it is therefore an animal model of primary interest in antiepileptic drug discovery. The compounds of the invention have shown remarkable activity to protect against 6 Hz seizures.
The evaluation of the anticonvulsant properties was carried out in female NMRI mice (20-25 g, Taconic, Denmark). The mice were housed in groups (8 per cage according to weight) with food and water available ad libitum The environment was temperature (20±2° C.) and humidity (55±15%) controlled, and consisted of a 12:12 h light-dark cycle (lights on 06:00 h). The experiments were performed according to the Danish Committee for Experiments on Animals. […]
For screening purposes, the test compound was tested at 1 dose at 1 time-point. In the case of protection of 3 or more out of 8 mice, the compound were further evaluated in dose response (N=8/group). […]

With `NC(=O)Cn1c(=O)ccc2cc(Br)ccc21` [Compound 1, 2-(6-Bromo-2-oxo-1-quinolyl)acetamide] the ED50 was 16 mg/kg.
